Results from patent US20220096508A1, “METHOD OF TREATMENT AND PHARMACEUTICAL DOSAGE FORM” (Aprea Therapeutics AB, priority 2019, published 2022).
Where two headings read alike, the source gives them in different places.

System: TP53 mutant myeloid neoplasms
From the text: The study, identified as NCT03072043 on clinicaltrials.gov, is a multi-institution, open-label, phase Ib/II clinical trial conducted in 2 parts: a Phase 1 b part followed by a Simon's two-stage Phase 2 design. The study assesses the safety and efficacy of APR-246 in combination with azacitidine for the treatment of TP53 mutant myeloid neoplasms. All patients were pre-screened by NGS on peripheral blood (PB) or bone marrow (BM) samples to determine TP53 mutational status and therefore eligibility to participate in this study. A PB sample was obtained prior to treatment for NGS by a central laboratory, to evaluate baseline TP53 VAF and for serial analysis.
Treatment was administered on an outpatient basis. No investigational or commercial agents or therapies other than those described were administered with the intent to treat the patient's MDS or MDS/MPN. APR-246 was supplied by Aprea Therapeutics AB. The investigational medicinal product was a concentrate for solution, diluted with sterile 0.9% NaCl solution for infusion before administration. The solution for infusion was prepared with the prescribed dosage for each patient in accordance with the protocol and separate technical instruction.
The initial Phase 1 b part evaluated APR-246 administered with azacitidine. Cohorts of at least 3 evaluable patients were enrolled using a modified 3+3 design. Patients received IV infusions of APR-246 as a lead-in phase on days −14 to −11, starting at Dose Level 1 (see below and in Table 1) prior to starting cycle #1 of combination therapy with azacitidine (see FIG. 1) In all cycles, APR-246 was administered as a 6-hour infusion daily for four consecutive days (study days −14 to −11 of the lead in phase and day 1 to 4 of each combination cycle). • Dose Level 1 (starting dose): APR-246 21.0 mg/kg LBM (for the first 45 min)+29 mg/kg LBM (for 5 h 15 min) on days 1 to 4. • Dose Level 2: APR-246 30.0 mg/kg LBM (for first 45 min)+45.0 mg/kg LBM (for 5 h 15 min) on days 1 to 4. • Dose Level 3: APR-246 37.0 mg/kg LBM (for first 45 min)+63.0 mg/kg LBM (for 5 h 15 min) on days 1 to 4.
Thus, the combination therapy consisted of APR-246 on days 1-4 and azacitidine on days 4-10 of a 28-day cycle. Azacitidine was administered subcutaneously (SC) or intravenously (SC being preferred) at 75 mg/m^2 for 7 days (either for 7 consecutive days (days 4-10) or on 2+5 days (i.e. days 4-5 and 8-12)). Azacitidine was administered on day 4 at the same time as the final infusion of APR-246. Azacitidine was given following the completion of APR-246 infusion. Cohorts of at least 3 evaluable patients were enrolled using a modified 3+3 design. Patients were followed for at least 6 weeks (lead-in phase+cycle 1) before decision to dose escalation in the next cohort following a full safety assessment. The MTD was defined as the dose level below which DLT is manifested in 33% of the patients or at dose level 1 if DLT is manifested in <33% of the patients.
Following completion of the dose finding phase described above, a dose expansion was carried out, whereby patients are treated with APR-246 administered at the MTD with azacitidine on a 28-day cycle with the same dosing schedule as in Phase Ib, with the exception of no lead in phase (i.e. patients will start at day 1 of combination therapy with APR-246 on days 1˜4 and azacitidine on days 4-10 (or days 4-5 and 8-12) of a 28-day cycle as illustrated in FIG. 1), and the exception that the recommended Phase 2 dose was modified from 100 mg/kg LBM to a fixed dose regimen of 4500 mg/patient (i.e. APR-246 administration in 2 consecutive steps as a loading dose (1500 mg for first 45 min) and a maintenance dose (3000 mg for 5 h 15 min)).

[1] = MDS population (n=40), combination with azacitidine
[2] = protocol-defined efficacy evaluable MDS population (n=33), combination with azacitidine

COCC1(CO)C(=O)C2CCN1CC2 (stereo not drawn) [APR-246, 2-hydroxymethyl-2-methoxymethyl-1-azabicyclo [2,2,2] octan-3-one]
patients able to discontinue therapy and proceed to allogeneic SCT (MDS patients, combination with azacitidine): 40% | CR rate [1]: 50% | ORR [1]: 73% | patients able to discontinue therapy and proceed to allogeneic SCT (efficacy evaluable MDS patients, combination with azacitidine): 48% | recommended Phase 2 dose (human, in vivo): 100 mg/kg lean body weight | patients who achieved CR, Stage 1 (of 24 evaluable patients at the MTD, combination with azacitidine): More than 6 | patients who achieved CR, Stage 2 (of 45 evaluable patients, combination with azacitidine): More than 14 | CR [2]: 61% | ORR [2]: 88%
